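Assay format: 96-well plates, 48-hour exposure. Here, GI50 denotes the concentration required for 50% inhibition of growth. TGI: total growth inhibition.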
Columns and labels:
Test in all cases: NCI anticancer screen, dose series, 48 h
[1] = test system: CAKI-1 renal
[2] = test system: CCRF-CEM leukemia
[3] = test system: HCT-15 colon
[4] = test system: HL-60(TB) leukemia
[5] = test system: NCI-H23 lung
[6] = test system: OVCAR-4 ovarian
[7] = test system: RPMI-8226 leukemia
[8] = test system: SF-268 CNS
[9] = test system: T-47D breast
[10] = test system: UACC-62 melanoma

Cc1c2c(nn1-c1ccc(S/N=C3\SCC(=O)CN3c3ccccc3)cc1)-c1ccccc1CC2
GI50 [1]: 18.1 µM | TGI [1]: > 50 µM | GI50 [2]: 28.1 µM | TGI [2]: > 50 µM | GI50 [3]: 21.2 µM | TGI [3]: > 50 µM | GI50 [4]: > 50 µM | TGI [4]: > 50 µM | GI50 [5]: 32.3 µM | TGI [5]: > 50 µM | GI50 [6]: 37.6 µM | TGI [6]: > 50 µM | GI50 [7]: 7.85 µM | TGI [7]: > 50 µM | GI50 [8]: 20.2 µM | TGI [8]: > 50 µM | GI50 [9]: 24.7 µM | TGI [9]: > 50 µM | GI50 [10]: 16 µM | TGI [10]: > 50 µM

O=C(/C=N/O)c1c(-c2ccccc2)[nH]c(-c2ccccc2)c1-c1ccccc1
TGI [1]: 48.1 µM | TGI [2]: > 100 µM | TGI [3]: 45.8 µM | TGI [4]: > 100 µM | TGI [5]: 21.3 µM | TGI [6]: 42.9 µM | TGI [7]: 31.4 µM | TGI [8]: 49.7 µM | TGI [9]: > 100 µM | TGI [10]: 28.7 µM

COC(=O)c1c(-c2ccccc2)csc1NC(=O)c1c(-c2ccccc2)noc1C
GI50 [1]: 0.745 µM | TGI [1]: > 100 µM | GI50 [2]: 1.77 µM | TGI [2]: > 100 µM | GI50 [3]: 0.0809 µM | TGI [3]: > 100 µM | GI50 [4]: 1.32 µM | TGI [4]: > 100 µM | GI50 [5]: > 29.7 µM | TGI [5]: > 100 µM | GI50 [6]: 5.38 µM | TGI [6]: > 100 µM | GI50 [7]: 0.793 µM | TGI [7]: > 100 µM | GI50 [8]: 0.89 µM | TGI [8]: > 100 µM | GI50 [9]: 3.41 µM | TGI [9]: > 100 µM | GI50 [10]: 0.78 µM | TGI [10]: > 100 µM

COc1ccc(/C=C(/C(=O)N2CCNCC2)c2cc(OC)c(OC)c(OC)c2)cc1O
GI50 [1]: > 100 µM | TGI [1]: > 100 µM | GI50 [2]: 3.23 µM | TGI [2]: > 100 µM | GI50 [3]: 36.7 µM | TGI [3]: > 100 µM | GI50 [4]: 1.87 µM | TGI [4]: 5.5 µM | GI50 [5]: 5.16 µM | TGI [5]: > 100 µM | GI50 [6]: 8.15 µM | TGI [6]: > 100 µM | GI50 [7]: 3.55 µM | TGI [7]: > 100 µM | GI50 [8]: 7.23 µM | TGI [8]: > 100 µM | GI50 [9]: 6.71 µM | TGI [9]: > 100 µM | GI50 [10]: 3.15 µM | TGI [10]: > 100 µM

CC(C)(C)c1ccc(-c2nnc(SCc3ccc(Cl)cc3)n2-c2cccc(C(F)(F)F)c2)cc1
TGI [1]: > 100 µM | TGI [2]: > 100 µM | TGI [3]: > 100 µM | TGI [4]: 14.6 µM | TGI [5]: > 100 µM | TGI [6]: > 100 µM | TGI [7]: 30.6 µM | TGI [8]: > 100 µM | TGI [9]: > 100 µM | TGI [10]: > 100 µM

O=C(CC1C(=O)Nc2ccccc2S1=O)Nc1cccc(Cl)c1 (stereo not given)
TGI [1]: 55.3 µM | TGI [2]: > 57.6 µM | TGI [3]: > 100 µM | TGI [4]: > 64.2 µM | TGI [5]: > 100 µM | TGI [6]: > 100 µM | TGI [7]: > 31 µM | TGI [8]: > 100 µM | TGI [9]: 42.7 µM | TGI [10]: > 76.1 µM

CCN1C(=O)N(c2c(F)c(OC)cc(OC)c2F)Cc2cnc3[nH]c(CN4CCOCC4)cc3c21
GI50 [1]: 0.528 µM | TGI [1]: > 100 µM | GI50 [2]: 2.13 µM | TGI [2]: > 100 µM | GI50 [3]: 0.947 µM | TGI [3]: > 100 µM | GI50 [4]: 3.05 µM | TGI [4]: > 100 µM | GI50 [5]: 7.03 µM | TGI [5]: > 100 µM | GI50 [6]: 1.69 µM | TGI [6]: > 100 µM | GI50 [7]: 3.79 µM | TGI [7]: > 100 µM | GI50 [8]: 2.19 µM | TGI [8]: > 100 µM | GI50 [9]: 3.04 µM | TGI [9]: 25 µM | GI50 [10]: 3.77 µM | TGI [10]: 51.5 µM

NC(=O)NC(=O)CI
GI50 [1]: 2.32 µM | TGI [1]: 5.51 µM | GI50 [2]: 0.757 µM | TGI [2]: 2.31 µM | GI50 [3]: 1.68 µM | TGI [3]: 3.55 µM | GI50 [4]: 1.94 µM | TGI [4]: 4.02 µM | GI50 [5]: 5.75 µM | TGI [5]: 21 µM | GI50 [6]: 1.77 µM | TGI [6]: 4.08 µM | GI50 [7]: 5.38 µM | TGI [7]: 13.1 µM | GI50 [8]: 16.2 µM | TGI [8]: 36.4 µM | GI50 [9]: 1.72 µM | TGI [9]: 3.9 µM | GI50 [10]: 5.38 µM | TGI [10]: 18.7 µM

COc1cc2c(/C=C3\C(=O)Nc4ccc(Br)cc43)c(Cl)n(C)c2cc1C
GI50 [1]: 2.26 µM | TGI [1]: 7.3 µM | GI50 [2]: 2.94 µM | TGI [2]: 23.2 µM | GI50 [3]: 1.92 µM | TGI [3]: 8.06 µM | GI50 [4]: 3.09 µM | TGI [4]: 16.9 µM | GI50 [5]: 2.78 µM | TGI [5]: 13 µM | GI50 [6]: 4.12 µM | TGI [6]: 24.8 µM | GI50 [7]: 1.41 µM | TGI [7]: 16.6 µM | GI50 [8]: 1.31 µM | TGI [8]: 8 µM | GI50 [9]: 30.8 µM | TGI [9]: > 100 µM | GI50 [10]: 0.618 µM | TGI [10]: 12.9 µM

CC(O)CN(CCN(CC(C)O)CC(C)O)CC(C)O.O=[N+]([O-])O.[Cu+2] (stereo not given)
GI50 [1]: > 100 µM | TGI [1]: > 100 µM | GI50 [2]: > 100 µM | TGI [2]: > 100 µM | GI50 [3]: > 100 µM | TGI [3]: > 100 µM | GI50 [4]: > 100 µM | TGI [4]: > 100 µM | GI50 [5]: > 100 µM | TGI [5]: > 100 µM | GI50 [6]: 73.6 µM | TGI [6]: > 100 µM | GI50 [7]: > 100 µM | TGI [7]: > 100 µM | GI50 [8]: > 100 µM | TGI [8]: > 100 µM | GI50 [9]: > 100 µM | TGI [9]: > 100 µM | GI50 [10]: > 100 µM | TGI [10]: > 100 µM

Cc1nc2cc(O)c(O)cc2cc1Oc1ccc(NC(=O)Nc2ccc(Cl)c(Cl)c2)cc1
GI50 [1]: 4.96 µM | TGI [1]: 30 µM | GI50 [2]: 6.19 µM | TGI [2]: 21.8 µM | GI50 [3]: 5.47 µM | TGI [3]: > 32.5 µM | GI50 [4]: 9.02 µM | TGI [4]: 22.4 µM | GI50 [5]: 6.97 µM | TGI [5]: 19.6 µM | GI50 [6]: 9.73 µM | TGI [6]: > 32.5 µM | GI50 [7]: 7.62 µM | TGI [7]: 20.7 µM | GI50 [8]: 8.45 µM | TGI [8]: > 32.5 µM | GI50 [9]: 11.6 µM | TGI [9]: > 32.5 µM | GI50 [10]: 5.67 µM | TGI [10]: 11.2 µM

COc1ccc(C(=O)Nc2cccc(C3CC(=O)c4c(cc(OC)c(OC)c4OC)O3)c2)cc1 (stereo not given)
GI50 [1]: 1.58 µM | TGI [1]: > 100 µM | GI50 [2]: 0.426 µM | TGI [2]: > 100 µM | GI50 [3]: 0.475 µM | TGI [3]: > 100 µM | GI50 [4]: 1 µM | TGI [4]: 3.36 µM | GI50 [5]: 2.63 µM | TGI [5]: > 100 µM | GI50 [6]: 3.11 µM | TGI [6]: 30.7 µM | GI50 [7]: 0.726 µM | TGI [7]: 3.51 µM | GI50 [8]: 2.29 µM | TGI [8]: > 100 µM | GI50 [9]: 2.13 µM | TGI [9]: 8.1 µM | GI50 [10]: 0.557 µM | TGI [10]: 10.8 µM

O=C(O)/C(Cl)=C(/Cl)C(=O)Nc1cccc(Cl)c1
TGI [1]: 16.3 µM | TGI [2]: 19 µM | TGI [3]: 34.9 µM | TGI [4]: 22.7 µM | TGI [5]: 36.4 µM | TGI [6]: 33.6 µM | TGI [7]: 46.2 µM | TGI [8]: 48.3 µM | TGI [9]: 50.8 µM | TGI [10]: 31.7 µM

COc1ccc(C2CC(c3cc(OC)c(OC)c(OC)c3)=NN2)cc1 (stereo not given)
GI50 [1]: 7.39 µM | TGI [1]: 63.5 µM | GI50 [2]: 6.34 µM | TGI [2]: > 100 µM | GI50 [3]: 3.48 µM | TGI [3]: > 100 µM | GI50 [4]: 2.19 µM | TGI [4]: 12 µM | GI50 [5]: 12.9 µM | TGI [5]: > 100 µM | GI50 [6]: 12.8 µM | TGI [6]: > 100 µM | GI50 [7]: 3.23 µM | TGI [7]: 18.6 µM | GI50 [8]: 20 µM | TGI [8]: > 100 µM | GI50 [9]: 3.61 µM | TGI [9]: > 100 µM | GI50 [10]: 7.63 µM | TGI [10]: > 100 µM

Fc1ccc(Nc2nc(Nc3ccc(-c4nc5ccccc5[nH]4)cc3)nc(N3CCCC3)n2)cc1
GI50 [1]: 3.01 µM | TGI [1]: 12.5 µM | GI50 [2]: 2.98 µM | TGI [2]: 10.4 µM | GI50 [3]: 2.25 µM | TGI [3]: 6.03 µM | GI50 [4]: 2.64 µM | TGI [4]: 6.61 µM | GI50 [5]: 3.36 µM | TGI [5]: 16.8 µM | GI50 [6]: 3.65 µM | TGI [6]: 14.6 µM | GI50 [7]: 2.28 µM | TGI [7]: 6.3 µM | GI50 [8]: 2.67 µM | TGI [8]: 7.99 µM | GI50 [9]: 2.28 µM | TGI [9]: 5.58 µM | GI50 [10]: 1.77 µM | TGI [10]: 3.61 µM

Reference: PubChem BioAssay (NCI)
